Experimental data reported in patent US9993494B2, “Compositions and methods for treating fibrotic disease” (eFFECTOR Therapeutics, Inc., priority 2014, dated 2018).

Tested on: normal human lung fibroblasts
Assay: Ribosomal profiling: translational efficiency in TGFβ-treated fibroblasts
Assay type: cell-based
Conditions: TGFβ-treated fibroblasts
Experimental: Ribosomal profiling allows for measurement of changes in transcription and translation on a genome-wide basis accompanying TGFβ-dependent transformation of fibroblasts to myofibroblasts. Ribosomal profiles of the TGFβ-treated fibroblasts from Example 1 (about 6×10^6 cells/10 cm plate) were prepared and analyzed for changes in translational efficiencies with respect to potential disease-associated cellular changes accompanying this TGFβ-induced transformation.
Briefly, cells were washed with cold PBS supplemented with cycloheximide and lysed with 1× mammalian cell lysis buffer for 10 minutes on ice. Lysates were clarified by centrifugation for 10 minutes at 14,000 rpm and supernatants were collected. Cell lysates were processed to generate ribosomal protected fragments and total mRNA according to the instructions included with the ARTseq Ribosome Profiling Kit (Illumina, San Diego, Calif.). Sequencing of total RNA (RNA) and of ribosome-protected fragments of RNA (RPF) was carried out using RNA-Seq methodology according to the manufacturer's instructions (Illumina). To analyze the ribosomal profiles, RNA-Seq reads were processed with tools from the FASTX-Toolkit (fastq_quality_trimmer, fastx_clipper and fastx_trimmer). Unprocessed and processed reads were evaluated for a variety of quality measures using FastQC, and processed reads were mapped to the human genome using TopHat (see, e.g., Trapnell et al., Bioinformatics 25:1105, 2009). Gene-by-gene assessment of the number of fragments strictly and uniquely mapping to the coding region of each gene was conducted using HTSeq-count, a component of the HTSeq package. […] Genes with low counts in either RPF or RNA were excluded from differential analyses. Pathway and network analyses of differential data were conducted using Ingenuity Pathway Analysis (IPA).

Question: How did the “effect in renormalizing the translational profile of the gene” value (gene RPS6 (ENSG00000137154)) turn out when CC(C=CC(=O)NO)=CC(C)C(=O)c1ccc(N(C)C)cc1 (stereo not drawn) [TSA, 7-[4-(dimethylamino)phenyl]-N-hydroxy-4,6-dimethyl-7-oxohepta-2,4-dienamide] was run?
Answer: − (− = <0.9)

Question: And the “effect in renormalizing the translational profile of the gene” value (gene RPS6KA5 (ENSG00000100784))?
Answer: − (− = <0.9)

Question: What about the “effect in renormalizing the translational profile of the gene” value (gene RPS7 (ENSG00000171863)) of the same compound?
Answer: − (− = <0.9)

Question: And the “effect in renormalizing the translational profile of the gene” value (gene RPS8 (ENSG00000142937))?
Answer: − (− = <0.9)

Question: And the “effect in renormalizing the translational profile of the gene” value (gene RPS9 (ENSG00000170889))?
Answer: − (− = <0.9)

Question: What about the “effect in renormalizing the translational profile of the gene” value (gene RPS10 (ENSG00000124614)) of the same compound?
Answer: − (− = <0.9)

Question: And the “effect in renormalizing the translational profile of the gene” value (gene RPS11 (ENSG00000142534))?
Answer: − (− = <0.9)

Question: What about the “effect in renormalizing the translational profile of the gene” value (gene RPS12 (ENSG00000112306)) of the same compound?
Answer: − (− = <0.9)

Question: And the “effect in renormalizing the translational profile of the gene” value (gene RPS13 (ENSG00000110700))?
Answer: − (− = <0.9)

Question: What about the “effect in renormalizing the translational profile of the gene” value (gene RPS14 (ENSG00000164587)) of the same compound?
Answer: − (− = <0.9)

Question: And the “effect in renormalizing the translational profile of the gene” value (gene RPS15 (ENSG00000115268))?
Answer: − (− = <0.9)

Question: And the “effect in renormalizing the translational profile of the gene” value (gene RPS15A (ENSG00000134419))?
Answer: − (− = <0.9)

Question: What about the “effect in renormalizing the translational profile of the gene” value (gene RPS16 (ENSG00000105193)) of the same compound?
Answer: − (− = <0.9)

Question: What about the “effect in renormalizing the translational profile of the gene” value (gene RPS18 (ENSG00000231500)) of the same compound?
Answer: − (− = <0.9)

Question: What about the “effect in renormalizing the translational profile of the gene” value (gene RPS19 (ENSG00000105372)) of the same compound?
Answer: − (− = <0.9)

Question: And the “effect in renormalizing the translational profile of the gene” value (gene RPS20 (ENSG00000008988))?
Answer: − (− = <0.9)

Question: And the “effect in renormalizing the translational profile of the gene” value (gene RPS21 (ENSG00000171858))?
Answer: − (− = <0.9)

Question: What about the “effect in renormalizing the translational profile of the gene” value (gene RPS23 (ENSG00000186468)) of the same compound?
Answer: − (− = <0.9)

Question: What about the “effect in renormalizing the translational profile of the gene” value (gene RPS24 (ENSG00000138326)) of the same compound?
Answer: − (− = <0.9)

Question: And the “effect in renormalizing the translational profile of the gene” value (gene RPS25 (ENSG00000118181))?
Answer: − (− = <0.9)

Question: What about the “effect in renormalizing the translational profile of the gene” value (gene RPS26 (ENSG00000197728)) of the same compound?
Answer: − (− = <0.9)

Question: And the “effect in renormalizing the translational profile of the gene” value (gene RPS27 (ENSG00000177954))?
Answer: − (− = <0.9)

Question: And the “effect in renormalizing the translational profile of the gene” value (gene RPS27A (ENSG00000143947))?
Answer: − (− = <0.9)

Question: What about the “effect in renormalizing the translational profile of the gene” value (gene RPS28 (ENSG00000233927)) of the same compound?
Answer: − (− = <0.9)

Question: And the “effect in renormalizing the translational profile of the gene” value (gene RPS29 (ENSG00000213741))?
Answer: − (− = <0.9)

Question: And the “effect in renormalizing the translational profile of the gene” value (gene RPSA (ENSG00000168028))?
Answer: − (− = <0.9)

Question: And the “effect in renormalizing the translational profile of the gene” value (gene RTN2 (ENSG00000125744))?
Answer: − (− = <0.9)

Question: And the “effect in renormalizing the translational profile of the gene” value (gene SEMA3A (ENSG00000075213))?
Answer: − (− = <0.9)

Question: And the “effect in renormalizing the translational profile of the gene” value (gene SGIP1 (ENSG00000118473))?
Answer: − (− = <0.9)

Question: And the “effect in renormalizing the translational profile of the gene” value (gene SH3BGR (ENSG00000185437))?
Answer: − (− = <0.9)

Question: And the “effect in renormalizing the translational profile of the gene” value (gene SHC3 (ENSG00000148082))?
Answer: + (+ = 0.9 to 1.5)

Question: What about the “effect in renormalizing the translational profile of the gene” value (gene SLC2A12 (ENSG00000146411)) of the same compound?
Answer: − (− = <0.9)

Question: And the “effect in renormalizing the translational profile of the gene” value (gene SLC7A7 (ENSG00000155465))?
Answer: − (− = <0.9)

Question: And the “effect in renormalizing the translational profile of the gene” value (gene SLC15A3 (ENSG00000110446))?
Answer: ++ (++ = 1.5 to 2.0)

Question: What about the “effect in renormalizing the translational profile of the gene” value (gene SLC25A6 (ENSG00000169100)) of the same compound?
Answer: − (− = <0.9)

Question: What about the “effect in renormalizing the translational profile of the gene” value (gene SLC40A1 (ENSG00000138449)) of the same compound?
Answer: + (+ = 0.9 to 1.5)

Question: What about the “effect in renormalizing the translational profile of the gene” value (gene SMO (ENSG00000128602)) of the same compound?
Answer: − (− = <0.9)

Question: And the “effect in renormalizing the translational profile of the gene” value (gene SNRPA (ENSG00000077312))?
Answer: − (− = <0.9)

Question: And the “effect in renormalizing the translational profile of the gene” value (gene SOX5 (ENSG00000134532))?
Answer: + (+ = 0.9 to 1.5)

Question: And the “effect in renormalizing the translational profile of the gene” value (gene SOX6 (ENSG00000110693))?
Answer: − (− = <0.9)

Question: What about the “effect in renormalizing the translational profile of the gene” value (gene SPATA6 (ENSG00000132122)) of the same compound?
Answer: − (− = <0.9)

Question: And the “effect in renormalizing the translational profile of the gene” value (gene STAMBPL1 (ENSG00000138134))?
Answer: + (+ = 0.9 to 1.5)

Question: And the “effect in renormalizing the translational profile of the gene” value (gene STS (ENSG00000101846))?
Answer: − (− = <0.9)

Question: And the “effect in renormalizing the translational profile of the gene” value (gene SYNE2 (ENSG00000054654))?
Answer: − (− = <0.9)

Question: What about the “effect in renormalizing the translational profile of the gene” value (gene TAF1D (ENSG00000166012)) of the same compound?
Answer: + (+ = 0.9 to 1.5)

Question: What about the “effect in renormalizing the translational profile of the gene” value (gene TDG (ENSG00000139372)) of the same compound?
Answer: − (− = <0.9)

Question: What about the “effect in renormalizing the translational profile of the gene” value (gene TEN1 (ENSG00000257949)) of the same compound?
Answer: − (− = <0.9)

Question: And the “effect in renormalizing the translational profile of the gene” value (gene TET2 (ENSG00000168769))?
Answer: − (− = <0.9)

Question: And the “effect in renormalizing the translational profile of the gene” value (gene TET3 (ENSG00000187605))?
Answer: − (− = <0.9)

Question: And the “effect in renormalizing the translational profile of the gene” value (gene TGFBI (ENSG00000120708))?
Answer: − (− = <0.9)

Question: What about the “effect in renormalizing the translational profile of the gene” value (gene THBS3 (ENSG00000169231)) of the same compound?
Answer: − (− = <0.9)

Question: And the “effect in renormalizing the translational profile of the gene” value (gene THG1L (ENSG00000113272))?
Answer: − (− = <0.9)

Question: And the “effect in renormalizing the translational profile of the gene” value (gene TIMM9 (ENSG00000100575))?
Answer: − (− = <0.9)

Question: What about the “effect in renormalizing the translational profile of the gene” value (gene TKT (ENSG00000163931)) of the same compound?
Answer: − (− = <0.9)

Question: What about the “effect in renormalizing the translational profile of the gene” value (gene TMTC1 (ENSG00000133687)) of the same compound?
Answer: + (+ = 0.9 to 1.5)

Question: What about the “effect in renormalizing the translational profile of the gene” value (gene TOMM7 (ENSG00000196683)) of the same compound?
Answer: − (− = <0.9)

Question: And the “effect in renormalizing the translational profile of the gene” value (gene TOP2A (ENSG00000131747))?
Answer: − (− = <0.9)

Question: And the “effect in renormalizing the translational profile of the gene” value (gene TPGS1 (ENSG00000141933))?
Answer: − (− = <0.9)

Question: What about the “effect in renormalizing the translational profile of the gene” value (gene TPM2 (ENSG00000198467)) of the same compound?
Answer: − (− = <0.9)

Question: What about the “effect in renormalizing the translational profile of the gene” value (gene TPT1 (ENSG00000133112)) of the same compound?
Answer: − (− = <0.9)

Question: What about the “effect in renormalizing the translational profile of the gene” value (gene TRERF1 (ENSG00000124496)) of the same compound?
Answer: − (− = <0.9)

Question: What about the “effect in renormalizing the translational profile of the gene” value (gene UBA52 (ENSG00000221983)) of the same compound?
Answer: − (− = <0.9)

Question: What about the “effect in renormalizing the translational profile of the gene” value (gene UQCRB (ENSG00000156467)) of the same compound?
Answer: − (− = <0.9)

Question: What about the “effect in renormalizing the translational profile of the gene” value (gene UTRN (ENSG00000152818)) of the same compound?
Answer: − (− = <0.9)

Question: What about the “effect in renormalizing the translational profile of the gene” value (gene VIM (ENSG00000026025)) of the same compound?
Answer: − (− = <0.9)

Question: And the “effect in renormalizing the translational profile of the gene” value (gene ZNF581 (ENSG00000171425))?
Answer: − (− = <0.9)
